Measured values: EP2030621A1, “Novel substituted pyrimidines as cysteine protease inhibitors” (GLAXO GROUP LIMITED, priority 2007, dated 2009)
Where a name gives a salt, the structure may show the parent alone. Read-outs that look alike come from different tables or passages of the source.

Test system: Plasmodium falciparum parasite
Experiment: Whole cell assay: whole cell activity against the parasite
Type: cell-based
From the text: Compounds can be evaluated for whole cell actvity against the Plasmadium falciparum parasite according to the procedure described in Sijwali S. and Rosenthal P. J., (2004) Proceedings of the National Academy of Sciences of the United States of America (PNAS) 101(13), 4384-4389 (see in particular "Measurement of Parasite Growth rates and Inhibitor Sensitivity" on page 4385); IC50 values can be calculated as described in Singh A. and Rosenthal P. J., (2001) Antimicrobial Agents and Chemotherapy 45(3), 949-951 (see in particular page 950, first column); synchronised parasites can be prepared as described in Divo A. A. et al., (1985) Protozool. 32, 59-64. 3) In vitro models to evaluate activity against bone metastasis

Row | IC50 (Plasmodium falciparum) [nM] | Structure (SMILES) | IC50 [nM]
1 | 2.5 to 15 | CC1CCC(N(NC(=O)c2ccc(CN3CCN(CC4CCN(C)CC4)CC3)cc2)c2nc(C#N)ncc2Br)C1 (mixture of isomers) [Example 5, N'-(5-bromo-2-cyano-4-pyrimidinyl)-N'-(3-methylcyclopentyl)-4-({4-[(1-methyl-4-piperidinyl)methyl]-1-piperazinyl}methyl)benzohydrazide trifluoroacetate] | 
2 | 15 to 150 | CC1CCC(N(NC(=O)c2ccc(CN3CCN(C)CC3)cc2)c2nc(C#N)ncc2Br)C1 (mixture of isomers) [Example 26, N'-(5-bromo-2-cyano-4-pyrimidinyl)-N'-(3-methylcyclopentyl)-4-[(4-methyl-1-piperazinyl)methyl]benzohydrazide trifluoroacetate] | 
3 | 15 to 150 | C[C@@H]1CCC[C@H]1N(NC(=O)c1ccc(F)cc1)c1nc(C#N)ncc1Br (racemic) [Example 43, N'-(5-bromo-2-cyano-4-pyrimidinyl)-4-fluoro-N'-[(1R,2R+1S,2S))-2-methylcyclopentyl]benzohydrazide trifluoroacetate] | 
4 | < 1 | CC1CCC(N(NC(=O)c2ccc(CN3CCC(N4CCN(C)CC4)CC3)cc2)c2nc(C#N)ncc2Br)C1 (stereo not shown) [Example 4, N'-(5-bromo-2-cyano-4-pyrimidinyl)-N'-(3-methylcyclopentyl)-4-{[4-(4-methyl-1-piperazinyl)-1-piperidinyl]methyl}benzohydrazide trifluoroacetate] | 
5 | 15 to 150 | N#Cc1ncc(Br)c(N(NC(=O)c2ccc(CN3CCC(N4CCOCC4)CC3)cc2)C2CCCC2)n1 [Example 6, N'-(5-bromo-2-cyano-4-pyrimidinyl)-N'-cyclopentyl-4-{[4-(4-morpholinyl)-1-piperidinyl]methyl}benzohydrazide trifluoroacetate] | 
6 |  | CN1CCC(CN2CCN(Cc3ccc(C(=O)NN(c4nc(C#N)ncc4Br)C4CCCC4)cc3)CC2)CC1 [Example 7, N'-(5-bromo-2-cyano-4-pyrimidinyl)-N'-cyclopentyl-4-({4-[(1-methyl-4-piperidinyl)methyl]-1-piperazinyl}methyl)benzohydrazide trifluoroacetate] | 1 to 2.5
7 | 2.5 to 15 | CN1CCCC(CN2CCN(Cc3ccc(C(=O)NN(c4nc(C#N)ncc4Br)C4CCCC4)cc3)CC2)C1 (stereo not shown) [Example 8, N'-(5-bromo-2-cyano-4-pyrimidinyl)-N'-cyclopentyl-4-({4-[(1-methyl-3-piperidinyl)methyl]-1-piperazinyl}methyl)benzohydrazide trifluoroacetate] | 
8 | 2.5 to 15 | CN1CCN(C(=O)C2CCN(Cc3ccc(C(=O)NN(c4nc(C#N)ncc4Br)C4CCCC4)cc3)CC2)CC1 [Example 9, N'-(5-bromo-2-cyano-4-pyrimidinyl)-N'-cyclopentyl-4-({4-[(4-methyl-1-piperazinyl)carbonyl]-1-piperidinyl}methyl)benzohydrazide trifluoroacetate] | 
9 | 2.5 to 15 | CN1CCN(C2CCN(Cc3ccc(C(=O)NN(c4nc(C#N)ncc4Br)C4CCCC4)cc3)CC2)CC1 [Example 10, N'-(5-bromo-2-cyano-4-pyrimidinyl)-N'-cyclopentyl-4-{[4-(4-methyl-1-piperazinyl)-piperidinyl]methyl}benzohydrazide trifluoroacetate] | 
10 | 2.5 to 15 | CN1CCN(C2CCN(Cc3cccc(C(=O)NN(c4nc(C#N)ncc4Br)C4CCCC4)c3)CC2)CC1 [Example 11, N'-(5-bromo-2-cyano-4-pyrimidinyl)-N'-cyclopentyl-3-{[4-(4-methyl-1-piperazinyl)-1-piperidinyl]methyl}benzohydrazide trifluoroacetate] | 
11 | 2.5 to 15 | CN1CCN(C(=O)C2CCN(Cc3cccc(C(=O)NN(c4nc(C#N)ncc4Br)C4CCCC4)c3)CC2)CC1 [Example 12, N'-(5-bromo-2-cyano-4-pyrimidinyl)-N'-cyclopentyl-3-({4-[(4-methyl-1-piperazinyl)carbonyl]-1-piperidinyl}methyl)benzohydrazide trifluoroacetate] | 
12 | 15 to 150 | N#Cc1ncc(Br)c(N(NC(=O)c2cccc(CN3CCC(N4CCOCC4)CC3)c2)C2CCCC2)n1 [Example 13, N'-(5-bromo-2-cyano-4-pyrimidinyl)-N'-cyclopentyl-3-{[4-(4-morpholinyl)-1-piperidinyl]methyl}benzohydrazide trifluoroacetate] | 
13 | 2.5 to 15 | CN1CCCC(CN2CCN(Cc3cccc(C(=O)NN(c4nc(C#N)ncc4Br)C4CCCC4)c3)CC2)C1 (stereo not shown) [Example 14, N'-(5-bromo-2-cyano-4-pyrimidinyl)-N'-cyclopentyl-3-({4-[(1-methyl-3-piperidinyl)methyl]-1-piperazinyl}methyl)benzohydrazide trifluoroacetate] | 
14 | 2.5 to 15 | CN1CCN(Cc2ccc(C(=O)NN(c3nc(C#N)ncc3Br)C3CCCCC3)cc2)CC1 [Example 16, N'-(5-bromo-2-cyano-4-pyrimidinyl)-N'-cyclohexyl-4-[(4-methyl-1-piperazinyl)methyl]benzohydrazide trifluoroacetate] | 
15 | 2.5 to 15 | CN1CCN(C2CCN(Cc3ccc(C(=O)NN(c4nc(C#N)ncc4Br)C4CCCCC4)cc3)CC2)CC1 [Example 17, N'-(5-bromo-2-cyano-4-pyrimidinyl)-N'-cyclohexyl-4-{[4-(4-methyl-1-piperazinyl)-1-piperidinyl]methyl}benzohydrazide trifluoroacetate] | 
16 | 15 to 150 | N#Cc1ncc(Br)c(N(NC(=O)c2ccc(CN3CCC(N4CCOCC4)CC3)cc2)C2CCCCC2)n1 [Example 18, N'-(5-bromo-2-cyano-4-pyrimidinyl)-N'-cyclohexyl-4-{[4-(4-morpholinyl)-1-piperidinyl]methyl}benzohydrazide trifluoroacetate] | 
17 | 2.5 to 15 | CN1CCC(CN2CCN(Cc3ccc(C(=O)NN(c4nc(C#N)ncc4Br)C4CCCCC4)cc3)CC2)CC1 [Example 19, N'-(5-bromo-2-cyano-4-pyrimidinyl)-N'-cyclohexyl-4-({4-[(1-methyl-4-piperidinyl)methyl]-1-piperazinyl}methyl)benzohydrazide trifluoroacetate] | 
18 | 2.5 to 15 | CN1CCN(C2CCN(Cc3cccc(C(=O)NN(c4nc(C#N)ncc4Br)C4CCCCC4)c3)CC2)CC1 [Example 20, N'-(5-bromo-2-cyano-4-pyrimidinyl)-N'-cyclohexyl-3-{[4-(4-methyl-1-piperazinyl)-1-piperidinyl]methyl}benzohydrazide trifluoroacetate] | 
19 | 15 to 150 | N#Cc1ncc(Br)c(N(NC(=O)c2ccc(CN3CCC(O)CC3)cc2)C2CCCCC2)n1 [Example 21, N'-(5-bromo-2-cyano-4-pyrimidinyl)-N'-cyclohexyl-4-[(4-hydroxy-1-piperidinyl)methyl]benzohydrazide trifluoroacetate] | 
20 | 2.5 to 15 | CN1CCN(C(=O)C2CCN(Cc3ccc(C(=O)NN(c4nc(C#N)ncc4Br)C4CCCCC4)cc3)CC2)CC1 [Example 22, N'-(5-bromo-2-cyano-4-pyrimidinyl)-N'-cyclohexyl-4-({4-[(4-methyl-1-piperazinyl)carbonyl]-1-piperidinyl}methyl)benzohydrazide trifluoroacetate] | 
21 | 2.5 to 15 | CN1CCN(C(=O)C2CCN(Cc3cccc(C(=O)NN(c4nc(C#N)ncc4Br)C4CCCCC4)c3)CC2)CC1 [Example 23, N'-(5-bromo-2-cyano-4-pyrimidinyl)-N'-cyclohexyl-3-[{4-[(4-methyl-1-piperazinyl)carbonyl]-1-piperidinyl}methyl)benzohydrazide trifluoroacetate] | 
22 | 2.5 to 15 | N#Cc1ncc(Br)c(N(NC(=O)c2cccc(CN3CCC(N4CCOCC4)CC3)c2)C2CCCCC2)n1 [Example 24, N'-(5-bromo-2-cyano-4-pyrimidinyl)-N'-cyclohexyl-3-{[4-(4-morpholinyl)-1-piperidinyl]methyl}benzohydrazide trifluoroacetate] | 
23 | 2.5 to 15 | CN1CCCC(CN2CCN(Cc3ccc(C(=O)NN(c4nc(C#N)ncc4Br)C4CCCCC4)cc3)CC2)C1 (stereo not shown) [Example 25, N'-(5-bromo-2-cyano-4-pyrimidinyl)-N'-cyclohexyl-4-({4-[(1-methyl-3-piperidinyl)methyl]-1-piperazinyl}methyl)benzohydrazide trifluoroacetate] | 
24 | 2.5 to 15 | CN1CCCC(CN2CCN(Cc3cccc(C(=O)NN(c4nc(C#N)ncc4Br)C4CCCCC4)c3)CC2)C1 (stereo not shown) [Example 27, N'-(5-bromo-2-cyano-4-pyrimidinyl)-N'-cyclohexyl-3-({4-[(1-methyl-3-piperidinyl)methyl]-1-piperazinyl}methyl)benzohydrazide trifluoroacetate] | 
25 | 2.5 to 15 | CN1CCC(CN2CCN(Cc3cccc(C(=O)NN(c4nc(C#N)ncc4Br)C4CCCCC4)c3)CC2)CC1 [Example 28, N'-(5-bromo-2-cyano-4-pyrimidinyl)-N'-cyclohexyl-3-({4-[(1-methyl-4-piperidinyl)methyl]-1-piperazinyl}methyl)benzohydrazide trifluoroacetate] | 
26 | 15 to 150 | CN1CCC(CN2CCN(Cc3ccc(C(=O)NN(c4nc(C#N)ncc4Br)C4CCOCC4)cc3)CC2)CC1 [Example 30, N'-(5-Bromo-2-cyano-4-pyrimidiny)-4-({4-[(1-methyl-4-piperidinyl)methyl]-1-piperazinyl}methyl)-N'-(tetrahydro-2H-pyran-4-yl)benzohydrazide trifluoroacetate] | 

Row | Structure (SMILES) | IC50 (Plasmodium falciparum) [nM] | IC50 [nM]
27 | C[C@H]1CCC[C@H]1N(NC(=O)c1ccc(CN2CCN(C)CC2)cc1)c1nc(C#N)ncc1Br (racemic) [Example 2, N'-(5-bromo-2-cyano-4-pyrimidinyl)-N'-[(1R,2S+1S,2R)-2-methylcyclopentyl]-4-[(4-methyl-1-piperazinyl)methyl]benzohydrazide trifluoroacetate] | 15 to 150 | 
28 | C[C@@H]1CCC[C@H]1N(NC(=O)c1ccc(CN2CCN(C)CC2)cc1)c1nc(C#N)ncc1Br (racemic) [Example 3, N'-(5-bromo-2-cyano-4-pyrimidinyl)-N'-[(1R,2R+1S,2S)-2-methylcyclopentyl]-4-[(4-methyl-1-piperazinyl)methyl]benzohydrazide trifluoroacetate] | 2.5 to 15 | 
